# Test results reported in PubChem BioAssay (NCI).
#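 A five-concentration, 48-hour dose response in 96-well plates underlies each endpoint, interpolated linearly between surrounding concentrations. GI50 marks 50% less growth. TGI: total growth inhibition.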
# Columns and labels:
# Test in all cases: growth of human tumour cells (NCI), 48 h
# PC-3 prostate = test system: PC-3 prostate
# UACC-62 melanoma = test system: UACC-62 melanoma
# NCI-H23 lung = test system: NCI-H23 lung
# M14 melanoma = test system: M14 melanoma
# SR leukemia = test system: SR leukemia
# A498 renal = test system: A498 renal
# OVCAR-4 ovarian = test system: OVCAR-4 ovarian
# MCF7 breast = test system: MCF7 breast
# TK-10 renal = test system: TK-10 renal
# SK-OV-3 ovarian = test system: SK-OV-3 ovarian
# HT29 colon = test system: HT29 colon
# T-47D breast = test system: T-47D breast
# RPMI-8226 leukemia = test system: RPMI-8226 leukemia
# SNB-19 CNS = test system: SNB-19 CNS
# HS 578T breast = test system: HS 578T breast
# A549 NSCLC = test system: A549 NSCLC
# SN12C renal = test system: SN12C renal
# BT-549 breast = test system: BT-549 breast
# OVCAR-5 ovarian = test system: OVCAR-5 ovarian
# OVCAR-8 ovarian = test system: OVCAR-8 ovarian
# KM12 colon = test system: KM12 colon
# UACC-257 melanoma = test system: UACC-257 melanoma
# K-562 leukemia = test system: K-562 leukemia
# SF-539 CNS = test system: SF-539 CNS
# MDA-MB-231 breast = test system: MDA-MB-231 breast
# SF-295 CNS = test system: SF-295 CNS
# NCI-H522 lung = test system: NCI-H522 lung
# MDA-MB-468 breast = test system: MDA-MB-468 breast
# HOP-92 NSCLC = test system: HOP-92 NSCLC
# EKVX NSCLC = test system: EKVX NSCLC
# DU-145 prostate = test system: DU-145 prostate
# NCI/ADR-RES ovarian = test system: NCI/ADR-RES ovarian
# SK-MEL-5 melanoma = test system: SK-MEL-5 melanoma
# ACHN renal = test system: ACHN renal
# CCRF-CEM leukemia = test system: CCRF-CEM leukemia
# SNB-75 CNS = test system: SNB-75 CNS
# HCT-15 colon = test system: HCT-15 colon
# NCI-H460 lung = test system: NCI-H460 lung
# HCT-116 colon = test system: HCT-116 colon
# HL-60(TB) leukemia = test system: HL-60(TB) leukemia
# SF-268 CNS = test system: SF-268 CNS
# CAKI-1 renal = test system: CAKI-1 renal
# NCI-H226 lung = test system: NCI-H226 lung
# U251 CNS = test system: U251 CNS
# SK-MEL-28 melanoma = test system: SK-MEL-28 melanoma
# RXF 393 renal = test system: RXF 393 renal
# IGROV1 ovarian = test system: IGROV1 ovarian
# OVCAR-3 ovarian = test system: OVCAR-3 ovarian
# SK-MEL-2 melanoma = test system: SK-MEL-2 melanoma
# SW-620 colon = test system: SW-620 colon
# LOX IMVI melanoma = test system: LOX IMVI melanoma
# MOLT-4 leukemia = test system: MOLT-4 leukemia
# HOP-62 NSCLC = test system: HOP-62 NSCLC
# HCC-2998 colon = test system: HCC-2998 colon
# 786-0 renal = test system: 786-0 renal
# COLO 205 colon = test system: COLO 205 colon
# MDA-MB-435 = test system: MDA-MB-435
# UO-31 renal = test system: UO-31 renal
# MALME-3M melanoma = test system: MALME-3M melanoma
structure (smiles),measurement,setting,value
CCN1CCN(c2ccc(NC(=O)Nc3ccc(-c4cc(C(=O)NC(C)C)c5ncccc5n4)cc3)cc2C(F)(F)F)CC1,GI50,PC-3 prostate,760 nM
same,TGI,PC-3 prostate,2100 nM
same,GI50,UACC-62 melanoma,3990 nM
same,TGI,UACC-62 melanoma,8280 nM
same,GI50,NCI-H23 lung,2050 nM
same,TGI,NCI-H23 lung,7270 nM
same,GI50,M14 melanoma,723 nM
same,TGI,M14 melanoma,1900 nM
same,GI50,SR leukemia,1050 nM
same,TGI,SR leukemia,12100 nM
same,GI50,A498 renal,5110 nM
same,TGI,A498 renal,9700 nM
same,GI50,OVCAR-4 ovarian,880 nM
same,TGI,OVCAR-4 ovarian,2450 nM
same,GI50,MCF7 breast,631 nM
same,TGI,MCF7 breast,1500 nM
same,GI50,TK-10 renal,1350 nM
same,TGI,TK-10 renal,4870 nM
same,GI50,SK-OV-3 ovarian,5330 nM
same,TGI,SK-OV-3 ovarian,10800 nM
same,GI50,HT29 colon,665 nM
same,TGI,HT29 colon,1320 nM
same,GI50,T-47D breast,1930 nM
same,TGI,T-47D breast,8740 nM
same,GI50,RPMI-8226 leukemia,1040 nM
same,TGI,RPMI-8226 leukemia,34500 nM
same,GI50,SNB-19 CNS,4240 nM
same,TGI,SNB-19 CNS,9120 nM
same,GI50,HS 578T breast,880 nM
same,TGI,HS 578T breast,3450 nM
same,GI50,A549 NSCLC,1140 nM
same,TGI,A549 NSCLC,5770 nM
same,GI50,SN12C renal,668 nM
same,TGI,SN12C renal,1380 nM
same,GI50,BT-549 breast,4830 nM
same,TGI,BT-549 breast,9570 nM
same,GI50,OVCAR-5 ovarian,1600 nM
same,TGI,OVCAR-5 ovarian,6090 nM
same,GI50,OVCAR-8 ovarian,5690 nM
same,TGI,OVCAR-8 ovarian,17500 nM
same,GI50,KM12 colon,1010 nM
same,TGI,KM12 colon,2910 nM
same,GI50,UACC-257 melanoma,3450 nM
same,TGI,UACC-257 melanoma,8110 nM
same,GI50,K-562 leukemia,1000 nM
same,TGI,K-562 leukemia,34500 nM
same,GI50,SF-539 CNS,534 nM
same,TGI,SF-539 CNS,1020 nM
same,GI50,MDA-MB-231 breast,610 nM
same,TGI,MDA-MB-231 breast,1180 nM
same,GI50,SF-295 CNS,581 nM
same,TGI,SF-295 CNS,1140 nM
same,GI50,NCI-H522 lung,3520 nM
same,TGI,NCI-H522 lung,8430 nM
same,GI50,MDA-MB-468 breast,766 nM
same,TGI,MDA-MB-468 breast,1850 nM
same,GI50,HOP-92 NSCLC,3140 nM
same,TGI,HOP-92 NSCLC,8290 nM
same,GI50,EKVX NSCLC,1610 nM
same,TGI,EKVX NSCLC,5820 nM
same,GI50,DU-145 prostate,749 nM
same,TGI,DU-145 prostate,1580 nM
same,GI50,NCI/ADR-RES ovarian,3660 nM
same,TGI,NCI/ADR-RES ovarian,10000 nM
same,GI50,SK-MEL-5 melanoma,1410 nM
same,TGI,SK-MEL-5 melanoma,5280 nM
same,GI50,ACHN renal,1020 nM
same,TGI,ACHN renal,3470 nM
same,GI50,CCRF-CEM leukemia,1010 nM
same,TGI,CCRF-CEM leukemia,3100 nM
same,GI50,SNB-75 CNS,979 nM
same,TGI,SNB-75 CNS,5140 nM
same,GI50,HCT-15 colon,667 nM
same,TGI,HCT-15 colon,1350 nM
same,GI50,NCI-H460 lung,617 nM
same,TGI,NCI-H460 lung,1180 nM
same,GI50,HCT-116 colon,638 nM
same,TGI,HCT-116 colon,1300 nM
same,GI50,HL-60(TB) leukemia,1070 nM
same,TGI,HL-60(TB) leukemia,5890 nM
same,GI50,SF-268 CNS,3560 nM
same,TGI,SF-268 CNS,10900 nM
same,GI50,CAKI-1 renal,804 nM
same,TGI,CAKI-1 renal,2080 nM
same,GI50,NCI-H226 lung,5020 nM
same,TGI,NCI-H226 lung,12500 nM
same,GI50,U251 CNS,1240 nM
same,TGI,U251 CNS,4820 nM
same,GI50,SK-MEL-28 melanoma,752 nM
same,TGI,SK-MEL-28 melanoma,1850 nM
same,GI50,RXF 393 renal,654 nM
same,TGI,RXF 393 renal,1730 nM
same,GI50,IGROV1 ovarian,1420 nM
same,TGI,IGROV1 ovarian,5110 nM
same,GI50,OVCAR-3 ovarian,636 nM
same,TGI,OVCAR-3 ovarian,1360 nM
same,GI50,SK-MEL-2 melanoma,4820 nM
same,TGI,SK-MEL-2 melanoma,9890 nM
same,GI50,SW-620 colon,637 nM
same,TGI,SW-620 colon,1260 nM
same,GI50,LOX IMVI melanoma,557 nM
same,TGI,LOX IMVI melanoma,1050 nM
same,GI50,MOLT-4 leukemia,1110 nM
same,TGI,MOLT-4 leukemia,30600 nM
same,GI50,HOP-62 NSCLC,3830 nM
same,TGI,HOP-62 NSCLC,8890 nM
same,GI50,HCC-2998 colon,1440 nM
same,TGI,HCC-2998 colon,5090 nM
same,GI50,786-0 renal,497 nM
same,TGI,786-0 renal,1030 nM
same,GI50,COLO 205 colon,931 nM
same,TGI,COLO 205 colon,2710 nM
same,GI50,MDA-MB-435,650 nM
same,TGI,MDA-MB-435,1310 nM
same,GI50,UO-31 renal,2180 nM
same,TGI,UO-31 renal,6810 nM
same,GI50,MALME-3M melanoma,575 nM
same,TGI,MALME-3M melanoma,1050 nM
